Laboratory results as given in patent US20230220224A1, “AQUEOUS DISPERSION AND IMAGE RECORDING METHOD” (FUJIFILM CORPORATION, priority 2020, published 2023).

Conditions: in water at 20° C.

| Compound | Neutralizer Solubility in water [g/100 mL] |
| --- | --- |
| CC(C)NC(C)C [DIPA, diisopropylamine] | 10 |
| CN1C(C)(C)CC(O)CC1(C)C [Example 4-OH-PMP, 4-hydroxy-1,2,2,6,6-pentamethylpiperidine] | 4.8 |
